According to patent US20220395500A1, “SMALL MOLECULE ACTIVATORS OF INTERFERON REGULATORY FACTOR 3 AND METHODS OF USE THEREOF” (Neuralexo, Inc., priority 2020, published 2022):
Like-named read-outs stand apart in the source and are kept apart here.

Experiments:
J774-Dual cytotoxicity = type: cell-based, mouse; conditions: mouse, J774-Dual cells, read-out: J774 cytotox CC50
In short: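 Orthogonal cross-species screen in mouse J774-Dual cells using 8-point dose-response format. Cytotoxicity measured in-plate by CellTiter-Glo luminescence, giving CC50 alongside EC50 and ISRE:NFκB ratios.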

[1] = tested on: IRF-Lucia luciferase reporter (ISRE) in J774-Dual cells; assay: J774-Dual IRF-Lucia luciferase reporter assay (ISRE activation); type: cell-based, mouse; conditions: for EC50: Mus musculus, read-out: J774 IRF EC50
Method: First, optimal assay conditions and assay quality in 384-well format were determined. As mentioned, the mouse macrophage J774 cell line (J774-Dual, InvivoGen) stably transfected with the same inducible reporters described above (e.g., IRF-Lucia luciferase and NF-κB-SEAP) was used. The responsiveness of the J774-Dual cell line was investigated in an array of assay conditions to obtain sensitive and reproducible results for the activation of the IRF and NF-κB reporters. An optimal plating density and conditions for these cells was established for these cells in a 384-well format. Assay work-flow is similar to that discussed above for the THP1-Dual assay without a need for cell differentiation. Thus, cells are seeded directly in growth medium and incubated at 37° C. in a 5% C02 incubator for 24 hours prior to the programmed treatments being added as described herein.
The primary high throughput screen used the HTS platform of human THP1 monocyte cells containing the IRF-Lucia luciferase and NFκB-SEAP (secreted embryonic alkaline phosphatase) dual reporter (THP1-Dual, Invivogen), enabling the simultaneous study of the IRF and NFκB signaling pathways respectively. As discussed, the Lucia luciferase reporter gene is under the control of an ISG54 (interferon-stimulated gene) minimal promoter in conjunction with five interferon-stimulated response elements (ISRE). The SEAP gene is driven by an IFNβ minimal promoter fused to five copies of the NFκB consensus transcriptional response element and three copies of the c-Rel binding site. Both IRF-Lucia luciferase and NFκB-SEAP reporter proteins are secreted and readily measurable in the cell culture supernatant when using QUANTI-Luc™ and QUANTI-Blue™ detection reagents, respectively. Identified “hits” were confirmed in a secondary screen with an 8-point dose response curve. Hits were further screened for activity in the mouse using the mouse J774 macrophage-like cell line containing the identical reporter constructs (J774-Dual, Invivogen).
The OTRADI Small Molecule Library of approximately 246,000 diverse compounds (see below for description) was screened using the THP1-Dual based HTS platform described above. All transfer steps in the screen are fully automated, thus reducing variability. Primary screening included a single data point or dose for each molecule. After data normalization was applied for each assay run, “hit” selection was performed on the plates that pass the quality control (QC) criterion. Hits were defined as samples having values above the activity cutoff determined based on noise level of the assay to reduce false positive rates. In the pilot study discussed above this activity value was >3σ above the ISRE mean with the added criteria of NFκB activation being lower than […] from the mean to identify IRF selective compounds. The ratio of ISRE:NFκB activity was also calculated as a selectivity index for prioritizing hit selection. Primary hits underwent secondary screening to determine the 50% effective concentration (EC50) and 50% cytotoxic concentration (CC50) of these agents using an 8-point dose-response curve in the human THP1-Dual cells. Cytotoxicity was measured in the plate using Cell Titer Glo (Promega). Identified candidate compounds were further screened (orthogonal screen) for cross species activity in the validated mouse J774-Dual assay using an 8-point dose-response format to determine EC50 and CC50 values as well as ISRE:NFκB ratios. A general process flow for the experimental design laid out above is depicted at FIG. 12.

[2] = tested on: IRF-Lucia luciferase reporter (ISRE) in THP1-Dual cells; assay: THP1-Dual IRF-Lucia luciferase reporter assay (ISRE activation); type: cell-based, human; conditions: Homo sapiens, THP1-Dual, read-out: THP1 IRF EC50
Method: THP1 Dual (InvivoGen) cell suspensions were cultured in RPMI 1640 (Hyclone, Logan, Utah) supplemented with 10% fetal bovine serum (Hyclone), 100 U/mL Normocin (Invivogen), and 50 U/mL PenStrep (Gibco, Dublin, Ireland) between a density of 7·10^5-2·10^6 cells/mL. Every other passage, media was supplemented with 5 U/mL Blasticidin and 100 U/mL Zeocin to maintain the expression constructs. White, flat-bottom 384-well plates (Greiner, Kremsmunster, Austria, 781080) were seeded with 2.5·10^4 cells/well in a total of 50 μL media containing 5 ng/mL phorbolmyristic acid (PMA) using a Matrix WellMate (Thermo Scientific) dispenser. After 48 hours of incubation at 37° C., media was removed using a BioTek ELx405 CW plate washer set to aspirate and wash each well three times with 65 μL 1×PBS. Plates were reloaded with 50 μL media without PMA and treatments added. Lipopolysaccharide in dimethylsulfoxide (DMSO) was transferred to control wells using a HP D300 microdispenser to a final concentration of 313 ng/mL. Compounds from chemical library plates were copied using a Sciclone (Caliper LifeSciences) mounted with a 384-pin transfer tool to obtain a final concentration of 10 μM. After incubation with treatments for 24 hours, 10 μL of supernatant media from each well was transferred into a white, flat-bottom 384-well plate for luminescence readout and a black-walled, clear flat-bottom 384-well plate for absorbance readout.
Specifically, to enable screening of novel chemical entities (NCEs) in a larger screening effort, a robust high-throughput cell-based assay system for primary hit identification of ISRE activators based on the above-mentioned target validation was desired. Human ISRE activity was verified using a THP-1 monocyte line containing the NF-κB-SEAP and IRF-Lucia luciferase dual reporter (THP1-Dual; Invivogen) that features two reporter genes, SEAP (secreted embryonic alkaline phosphatase) and Lucia luciferase, thereby enabling the simultaneous study of the NF-κB and IRF signalling pathways. The Lucia luciferase reporter is under the control of an ISG54 (interferon-stimulated gene) minimal promoter in conjunction with five IFN-stimulated response elements. The SEAP gene is driven by an IFN-β minimal promoter fused to five copies of the NF-κB consensus transcriptional response element and three copies of the c-Rel binding site. Both reporter proteins are readily measurable in the cell culture supernatant when using QUANTI-LUC™ and QUANTI-Blue SEAP detection reagents.
The responsiveness of the human THP-1 Dual cell line was evaluated in an array of assay conditions to obtain sensitive and reproducible results for the activation of IRF and NF-κB reporters. […] All transfer steps are fully automated using high throughput robotic equipment. Briefly, cells are seeded in differentiation medium using a Matrix WellMate fitted with the WellMate Stacker (Thermo Scientific) and incubated at 37° C. with 5% CO2 for 48 h. Following differentiation, cells are washed using a BioTek ELx405 Select CW plate washer and growth medium added with the Matrix WellMate. Programmed control treatments are added to wells using a D300 digital dispenser fitted with T8+ dispense heads (Hewlett Packard) designed to dispense nanoliter quantities of material. Compounds from library plates are added using a pin tool fitted to a Sciclone ALH 3000 Workstation (Caliper Life Sciences) programmed with Maestro v4.4. After treatment, plates are returned to incubators for 24 hours. To measure reporter expression, supernatant is collected using the Sciclone and dispensed into 2 plates: 1) a white 384-well assay plate for Lucia luminescence measurements and 2) a clear-bottom black 384-well assay plate for SEAP absorbance measurements.

[3] = THP1-Dual cytotoxicity (Cell Titer Glo, ATP); type: cell-based, human; conditions: human, THP1-Dual cells, read-out: Thp1 cytotox CC50
In short: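 Human THP1-Dual cells were treated across an 8-point dose-response range. Cytotoxicity was measured in-plate by CellTiter-Glo luminescence, which quantifies ATP as a marker of metabolically active cells, and CC50 was taken as the 50% cytotoxic concentration.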

[4] = J774, Mouse Reporter Cell Line, 8-point dose response
[5] = Human Reporter Cell Line, 8-point dose response
[6] = Mouse Reporter Cell Line J774, at peak
[7] = J774, Mouse Reporter Cell Line J774

Row | SMILES | CC50 (J774-Dual cytotoxicity; Mouse Reporter Cell Line) [µM] | J774 IRF % activation at peak ([1]; Mouse Reporter Cell Line) [%] | EC50 [1, 4] [µM] | EC50 [2, 5] [µM] | CC50 ([3]; Human Reporter Cell Line) [µM] | CC50 (J774-Dual cytotoxicity; Mouse Reporter Cell Line J774) [µM] | J774 IRF % activation at peak [1, 6] [%] | EC50 [1, 7] [µM] | CC50 ([3]; Human Reporter Cell Line THP1) [µM] | EC50 ([2]; Human Reporter Cell Line THP1) [µM]
1 | O=C(Nc1ccc(N2CCN(C(=O)c3cccs3)CC2)cc1)c1ccc2ccccc2c1 [NA-7] | > 25 | 5.638 | 4.36 | 3.91 | > 25 |  |  |  |  | 
2 | Cc1ccc(-c2nc3cc(OCCCCl)ccc3o2)cc1[N+](=O)[O-] [ND-81] |  |  |  |  |  | > 25 | 23.19 | ~9.79 | > 25 | 
3 | Cc1cc(C)c2c(N)c(C(=O)Nc3ccc4ccccc4c3)sc2n1 [ND-6] |  |  |  |  |  | > 25 | 18.79 | ~7.27 | 49.8 | 11.9
4 | COc1ccc(NC(=O)c2cc(NC(=O)c3cccs3)ccc2N2CCOCC2)cc1Cl [NB-22] |  |  |  |  |  | > 25 | 24.91 | 65 | > 25 | 3.26
5 | CCOc1ccc(C(=O)Nc2cc(-c3nc4ncccc4o3)ccc2C)cc1[N+](=O)[O-] [ND-48] |  |  |  |  |  | > 25 | 4.4 | 10 | 7.26 | ~3.05
6 | O=C(Nc1ccc(N2CCN(C(=O)c3ccccc3)CC2)cc1)c1ccc(OCc2ccccc2)cc1 [NA-51] | > 25 |  |  | ~2.63 | 11.3 |  |  |  |  | 
7 | Cc1ccccc1C(=O)N1CCN(c2ccc(NC(=O)c3ccc(OCc4ccccc4)cc3)cc2)CC1 [NA-52] | > 25 |  |  | 1.42 | > 25 |  |  |  |  | 
8 | Cc1cccc(C(=O)Nc2ccc(N3CCN(C(=O)c4cccs4)CC3)cc2)c1C [NA-6] | > 25 | 22.78 | 13.1 | 7.47 | > 25 |  |  |  |  | 
9 | Cc1ccc(-c2nc3cc(OCCCN4CCCC4)ccc3o2)cc1N [ND-82] |  |  |  |  |  | > 25 | 22.57 | ~9.36 | > 25 | 
10 | O=C(Nc1nc2ccc3scnc3c2s1)c1ccc2ccccc2c1 [ND-58] |  |  |  |  |  | > 25 |  |  | > 25 | 2.8
11 | Cc1ccc(-c2nc3ncccc3o2)cc1NC(=O)c1cc(Br)ccc1Cl [ND-3] |  |  |  |  |  | > 25 |  |  | 30.7 | 3.14
12 | O=C(Nc1ccc(N2CCN(C(=O)c3ccccc3)CC2)cc1)c1ccc(-c2cccnc2)cc1 [NA-53] | 29.2 |  |  | ~1.48 | 12.3 |  |  |  |  | 
13 | COc1ccc2nc(NC(=O)c3ccc(OC)c([N+](=O)[O-])c3)sc2c1 [ND-39] |  |  |  |  |  | > 25 |  |  | > 25 | 2.49
14 | COc1ccc(C(=O)Nc2cccc(-c3nc4cc(C)c(C)cc4o3)c2)cc1[N+](=O)[O-] [ND-46] |  |  |  |  |  | 27.9 |  |  | 13.1 | 3.22
15 | Cc1cc2nc(-c3ccc(C)c(NC(=O)c4ccc(N5CCCC5)c([N+](=O)[O-])c4)c3)oc2cc1C [ND-34] |  |  |  |  |  | > 25 |  |  | > 25 | ~11.4
16 | COc1ccc(C(=O)Nc2cc(-c3nc4cc(Cl)ccc4o3)ccc2C)cc1[N+](=O)[O-] [ND-40] |  |  |  |  |  | > 25 | 119.6 | 4.5 | 16.1 | 2.63
17 | Cc1ccc(-c2nc3ccccc3s2)cc1NC(=O)c1ccc(Cl)c([N+](=O)[O-])c1 [ND-64] |  |  |  |  |  | > 25 |  |  | > 25 | 7.27
18 | Cc1cc2nc(-c3ccc(C)c(NC(=O)c4cccc([N+](=O)[O-])c4)c3)oc2cc1C [ND-36] |  |  |  |  |  | > 25 |  |  | > 25 | ~8.05
19 | COC(=O)COc1cccc(NC(=O)c2cccc(NC(=O)c3cccs3)c2)c1 [NC-4] | > 25 | 6.428 | ~5.88 | 9.88 | > 25 |  |  |  |  | 
20 | O=C(Nc1ccc(N2CCN(C(=O)c3cccs3)CC2)cc1)c1ccc2cc(Br)ccc2c1 [NA-17] | > 25 |  |  | 2.4 | 14.6 |  |  |  |  | 
21 | COc1ccc(C(=O)Nc2cc(-c3nc4cc(C)c(C)cc4o3)ccc2C)cc1N [ND-60] |  |  |  |  |  | > 25 |  |  | > 25 | ~6.31
22 | Cc1ccc(C(=O)Nc2ccc3oc(-c4cccnc4)nc3c2)c(Cl)c1 [ND-4] |  |  |  |  |  | > 25 |  |  | 49.3 | 3.13
23 | COc1ccc(C(=O)Nc2ccc3oc(-c4cccnc4)nc3c2)cc1[N+](=O)[O-] [ND-43] |  |  |  |  |  | > 25 |  |  | 20.3 | 5.1
